Test system: MDA-MB-231 tumors
Experiment: TUNEL assay for tumor apoptosis
Type: in vivo, nude mice
Conditions: tumors harvested 48 h after intratumoral injection, N=3 mice per condition
Procedure: Furthermore, we evaluated the therapeutic efficacy of Fe3O4@PLGA-DOX to the tumor. Tumor tissues of the orthotopic breast cancer mice were harvested after injection of Fe3O4@PLGA-DOX for 48 h and then sectioned for TUNEL apoptosis assay. […] Meanwhile, the fluorescence signals can also be observed in the tissue section.
MDA-MB-231 tumors on nude mice were harvested and encapsulated in Tissue-Tek® O.C.T. and then frozen. Tumor tissues embedded in were sectioned by cryostat with a thickness of 2 μm for each slice. tissue slices were treated with Click-iT™ Plus TUNEL Assay (Alexa Fluor™ 488 dye) kit for apoptosis detection. Fluorescence images of tumor tissues were captured by fluorescent microscopy. Alexa Fluor™ 488 dye was excited by 488 nm laser and the emission collecting window was 500-540 nm. The signal of DOX were excited by 488 nm laser and emission was collected at 580-630 nm.

COc1cccc2c1C(=O)c1c(O)c3c(c(O)c1C2=O)C[C@@](O)(C(=O)CO)C[C@@H]3O[C@H]1C[C@H](N)[C@H](O)[C@H](C)O1 [DOX, doxorubicin]
apoptosis in tumor section (TUNEL): exhibited apoptosis

— US20210315476A1, “Depth-independent method for in-vivo drug release monitoring and quantification based on magnetic particle imaging” (The Board of Trustees of the Leland Stanford Junior …, priority 2018, published 2021)
